Experimental data taken from patent publication US20210107874A1, “PHARMACEUTICAL FORMULATION OF CROTONYLAMINOPYRIDINE SALT” (priority 2017, published 2021).
Read-outs that look alike come from different tables or passages of the source.

Assay: PK studies of formulations, plasma by HPLC-MS/MS
Assay type: in vivo
Details: bovine, plasma, 1.25 mg/kg, Cattle, 1.25 mg/kg; for AUC: read-out: AUC; for Cmax: read-out: Cmax; for Tmax: read-out: Tmax
Protocol: The following formulations were prepared and administered to animals. Blood samples were collected at pre-defined time points and the amount of compound present in plasma at the time of sampling was determined by HPLC-MS/MS. Pharmacokinetic parameters were then calculated: Cmax, Tmax, Tlast, AUC. [table]

[1] = sc, Form A50 (NMP, propylene glycol, water)
[2] = sc, Form B62.5 (dimethyl acetamide, propylene glycol, water)
[3] = sc, FormC62.5 (propylene glycol, ethanol, Transcutol P)
[4] = sc, FormD62.5 (PEG 300, ethanol, Transcutol P)
[5] = sc, FormE62.5 (polyethylene glycol 300, ethyl alcohol 96%, water)
[6] = sc, FormF62.5 (polyethylene glycol, 1-octanol, 2-pyrrolidone)
[7] = sc, FormG62.5 (benzyl alcohol, ethyl alcohol 96%, polyethylene glycol 300)
[8] = sc, FormH62.5 (DMA, DMSO, 2-pyrrolidone)
[9] = sc, FormK62.5 (2-pyrrolidone, Transcutol P, ethyl lactate)
[10] = sc, FormL50 (DMA, propylene glycol, water)
[11] = sc, FormP62.5 (L-tartaric acid, 2-pyrrolidone, NaOH, water)
[12] = sc, pH 4.3, FormQ62.5 (L-tartaric acid, sodium carboxymethyl cellulose, NaOH up to pH 4.3, water)
[13] = sc, pH 4.4, Form O62.5 (FormO type: L-tartaric acid, NaOH to pH 4.4, water)
[14] = sc, pH 4.6, FormM62.5 (L-tartaric acid, sodium hydroxide up to pH 4.6, water)
[15] = FormJ62.5 (DMSO, 2-pyrrolidone, ethyl lactate), SC

With `CCOc1cc(NCCNC(=O)/C=C/C(F)(F)F)ccn1` [Compound 4, (E)-N-[2-[(2-ethoxy-4-pyridyl)amino]ethyl]-4,4,4-trifluoro-but-2-enamide] the AUC [1] was 204 ng·h/mL, the Cmax [1] was 127 ng/mL and the Tmax [1] was 26.4 min. It also gave an AUC [2] of 98.2 ng·h/mL, a Cmax [2] of 37.4 ng/mL and a Tmax [2] of 30 min. For the same compound, the AUC [3] was 130 ng·h/mL, the Cmax [3] was 46.4 ng/mL and the Tmax [3] was 39.6 min. The AUC [4] was 63.2 ng·h/mL, the Cmax [4] was 25.4 ng/mL and the Tmax [4] was 55.2 min. It also gave an AUC [5] of 76.4 ng·h/mL, a Cmax [5] of 45.7 ng/mL and a Tmax [5] of 25.2 min. It also gave an AUC [6] of 78.5 ng·h/mL, a Cmax [6] of 15.2 ng/mL and a Tmax [6] of 37.8 min. For the same compound, the AUC [7] was 44.8 ng·h/mL, the Cmax [7] was 12.5 ng/mL and the Tmax [7] was 140 min. For the same compound, the AUC [8] was 88.2 ng·h/mL, the Cmax [8] was 42.1 ng/mL and the Tmax [8] was 40.2 min. It also gave an AUC [9] of 86 ng·h/mL, a Cmax [9] of 29.9 ng/mL and a Tmax [9] of 49.8 min. The AUC [10] was 59.8 ng·h/mL, the Cmax [10] was 28.1 ng/mL and the Tmax [10] was 40.2 min. It also gave an AUC [11] of 322 ng·h/mL, a Cmax [11] of 94.2 ng/mL and a Tmax [11] of 49.8 min. The AUC [12] was 356 ng·h/mL, the Cmax [12] was 297 ng/mL and the Tmax [12] was 34.8 min. The AUC [13] was 358 ng·h/mL, the Cmax [13] was 300 ng/mL and the Tmax [13] was 30 min. It also gave an AUC [14] of 336 ng·h/mL, a Cmax [14] of 350 ng/mL and a Tmax [14] of 15 min. For the same compound, the AUC [15] was 99.6 ng·h/mL, the Cmax [15] was 37.1 ng/mL and the Tmax [15] was 110 min.
